Experimental data taken from patent US6368621B1, “Preparation in particular for use as a medication and/or food supplement” (Peter Greither, priority 1999, dated 2002).

Assay: Determining the Kpart value: distribution between n-octanol and aqueous tris hydrochloride
Type: physicochemical
Settings: n-octanol / aqueous tris hydrochloride 20 mM, pH 7.4, 20° C.; for distribution coefficient Kpart, metal-free compound: spectrophotometry 220 to 340 nm; for distribution coefficient Kpart, iron complex [FeIII-(compound)3]: spectrophotometry 340 to 640 nm, 3:1 iron(III) complex of the compound
From the text: A further factor which plays a role with the bio-availability of iron is the ability of the iron complexes to penetrate biological membranes. One of the possible indicators for this membrane permeation is Kpart. Kpart describes the ratio between the concentration of the compound in n-octanol to the concentration of the compound in the aqueous phase. Although the iron complex as well as its corresponding metal-free compound should be able to enter through the biomembrane, both should also have a certain degree of water solubility. In the course of the present invention the iron complexes preferably have Kpart values in a region between 0.02 and 6.0, preferred between 0.1 and 4.0 and even more preferred between 0.2 and 1.0. The metal-free complex preferably has Kpart values between 0.05 and 3.0, preferred between 0.1 and 2.0 and even more preferred between 0.2 and 1.0.
Determining the Kpart value:
Determined is the distribution in each case for the iron complex as well as for the corresponding metal-free compound between n-octanol and aqueous tris hydrochloride (20 mM, pH 7.4; tris: 2 amino-2-hydroxymethylpropane-1,3-diol). The concentration of the substances in the respective phase is measured at 20° C. by way of spectrophotometry. 5 ml of a 10^−4M aqueous solution of iron complex and metal-free compound are mixed with 5 ml of n-octanol for one minute. The aqueous n-octanol mixture arising with this is centrifuged at 1,000 G for 30 seconds. The two resulting phases are separated from one another for evaluating the concentration. The metal-free compound is measured in a region of 220 to 340 nanometers whilst for evaluating the concentration of the corresponding iron complex a region between 340 and 640 nanometers is selected. These regions also apply to the 3:1 maltol-iron(III)-complex.

| SMILES | distribution coefficient Kpart, metal-free compound | distribution coefficient Kpart, iron complex [FeIII-(compound)3] |
| --- | --- | --- |
| Cc1occc(=O)c1O [3-hydroxy-2-methyl-4 pyrone] | 0.66 | 0.5 |
| Cn1cccc(O)c1=O [3-hydroxy-1-methylpyride-2-one] | 0.44 | 0.10 |
| CCn1cccc(O)c1=O [1-ethyl-3-hydroxypyri-2-one] | 0.52 | 1.06 |
